B1: 6PGD: 6-phosphogluconate dehydrogenase ectopically expressed; retroviral Pgd overexpression in BMM; in b299 delivered as mRNA in DMONs (protein)
chain: MAQADIALIGLAVMGQNLILNMNDHGFVVCAFNRTVSKVDDFLANEAKGTKVVGAQSLKDMVSKLKKPRRVILLVKAGQAVDDFIEKLVPLLDTGDIIIDGGNSEYRDTTRRCRDLKAKGILFVGSGVSGGEEGARYGPSLMPGGNKEAWPHIKAIFQAIAAKVGTGEPCCDWVGDEGAGHFVKMVHNGIEYGDMQLICEAYHLMKDVLGMRHEEMAQAFEEWNKTELDSFLIEITANILKYRDTDGKELLPKIRDSAGQKGTGKWTAISALEYGMPVTLIGEAVFARCLSSLKEERVQASQKLKGPKVVQLEGSKKSFLEDIRKALYASKIISYAQGFMLLRQAATEFGWTLNYGGIALMWRGGCIIRSVFLGKIKDAFERNPELQNLLLDDFFKSAVDNCQDSWRRVISTGVQAGIPMPCFTTALSFYDGYRHEMLPANLIQAQRDYFGAHTYELLTKPGEFIHTNWTGHGGSVSSSSYNA
notes: 6-phosphogluconate dehydrogenase ectopically expressed; in b299 delivered as mRNA in DMONs

How the values were obtained:
[1] = system: uropathogenic Escherichia coli (UPEC) strain EC958; assay: Growth of UPEC strain EC958 with or without H2O2 oxidative stress (OD600, 12 h); format: cell-based
Description: FIG. 5 is a graphical representation showing effect of increasing RL5P concentrations on the growth of uropathogenic Escherichia coli (UPEC) strain EC958 under conditions of oxidative stress in the form of 0.8 mM H2O2. (A) EC958 was cultured±H2O2 (0.8 mM) in the presence of the indicated concentrations of RL5P for 12 h, during which growth was assessed (A600 at the indicated time points); (B) Area under the curve analysis for the 12 h period was calculated thereafter and is presented in FIG. 5B. Data are compiled from four independent experiments and are presented as mean±SEM. Each symbol represents a different experiment. Statistical significance for (B) was determined using repeated measure two-way ANOVA followed by non-parametric Kruskal Wallis test followed by Dunn's multiple comparison test (ns—not significant; * p<0.05; **** p<0.0001).
FIG. 6 is a graphical representation showing effect of increasing RL5P concentrations on the growth of UPEC under conditions of oxidative stress in the form of 1 mM H2O2. (A) EC958 was cultured±H2O2 (1 mM) in the presence of the indicated concentrations of RL5P for 12 h, during which growth was assessed (A600 at the indicated time points); (B) EC958 was cultured in the presence of the indicated concentrations of RL5P and the absence of H2O2 for 12 h, during which growth was assessed (A600 at the indicated time points). Data are compiled from four independent experiments and are presented as mean±SEM.
FIG. 7 is a graphical representation showing the effect of RL5P and 6-phosphogluconate (6PG) on the on the growth of UPEC under conditions of oxidative stress in the form of H202. (A) EC958 was cultured±H2O2 (0.8 mM) in the presence of the indicated concentration of RL5P or 6PG for 12 h, during which growth was assessed (A600 at the indicated time points); (B). Each symbol represents a different experiment. Statistical significance for (B) was determined using repeated measure two-way ANOVA followed by non-parametric Kruskal Wallis test followed by Dunn's multiple comparison test (ns—not significant; * p<0.05; **** p<0.0001).
All bacterial strains were cultured at 37° C. on solid or liquid Luria-Bertani (LB) medium. The non-pathogenic E. coli K12 strain MG1655 (Blattner et al., 1997. Science. 277:1453-1462) and EC958, a representative strain of the globally-disseminated multidrug-resistant ST131 clone isolated from the urine of a patient with a urinary tract infection (Totsika et al., 2011, PloS one. 6:e26578-e26578; Petty et al., 2014, Proc Natl Acad Sci USA. 111:5694-5699), were used in this study. […] Bacterial growth was assessed by monitoring OD600 using a POLARstar Omega (BMG Labtech) at 20-30 min intervals.

[2] = system: Human monocyte-derived macrophages (HMDM); assay: Cytokine release (ELISA) from human monocyte-derived macrophages pre-treated with RL5P; format: cell-based
Description: (§1) FIG. 3 is a graphical representation showing the effect of R5LP treatment of macrophages on the release of cytokines IL-1β and TNF. (A-B) Human monocyte-derived macrophages (HMDM) were pre-treated with ribulose-5-phosphate (RL5P) for 16 h at the indicated concentrations. Nigericin-triggered IL-1β release from LPS-primed cells (A), as well as LPS-induced TNF (B) in culture supernatants were assessed by ELISA. (C-D) BMM were pre-treated for 16 h with RL5P at the indicated concentrations. Nigericin-triggered IL-1β release from LPS-primed cells (C), as well as LPS-induced TNF (D) in culture supernatants were assessed by ELISA. Data were compiled from six independent experiments (or donors) and are presented as mean±S.E.M. Statistical significance was determined using two-way ANOVA followed by Sidak's multiple comparison test (ns—not significant; * p<0.05; ** p<0.01).
(§2) FIG. 4 is a graphical representation showing the effect of R5LP treatment of macrophages on the release of cytokine IL-6. HMDM and BMM were pre-treated with the indicated concentrations of RL5P for 16 h, after which they were either stimulated with LPS (10 ng/mL) or infected with uropathogenic Escherichia coli (UPEC) strain EC958 (MOI 100) for 4 h. Supernatants were then assessed for secreted IL-6 by ELISA. Data were compiled from six independent experiments (or donors) and are presented as mean±SEM. Panel A presents IL-6 release (ng/mL), Panel B present IL-6 release normalized to LPS alone. Statistical significance was determined using repeated measure two-way ANOVA followed by Dunnett's multiple comparison test (A-B) (ns—not significant).
(§3) BMM were generated from indicated strains of mice, as previously described (Das Gupta et al., 2020, Cell Rep. 30:2712-2728.e2718). Bone marrow cells were cultured for 6 days in RPMI-1640 media (Thermo Fisher Scientific) supplemented with 10% FCS, 50 U/mL penicillin, 50 μg/mL streptomycin and 2 mM L-glutamine, in the presence of recombinant human colony-stimulating factor 1 (CSF-1), at either 1×10^4 U/mL (Chiron) or 150 ng/mL (The University of Queensland Protein Expression Facility). On day 6, BMM were harvested and replated at an appropriate density with fresh CSF-1, with cells being used in experiments on the following day. […]
(§4) BMM (5×10^5 cells/mL) or HMDM (5×10^5 cells/mL) were treated as indicated in individual figure legends. Supernatants were collected and assessed for secreted TNF. […] Supernatants were collected and analyzed for levels of IL-1β. […]

[3] = system: bone marrow-derived macrophages (BMM); assay: Cytokine release (ELISA) from mouse bone marrow-derived macrophages pre-treated with RL5P; format: cell-based
Description: as §1, §2, §3, §4

[4] = system: bone marrow-derived macrophages (BMM); assay: Retroviral overexpression of Pgd (6PGD) in BMM, cytokines by ELISA; format: cell-based, mouse
Description: FIG. 2 is a graphical representation showing the effect of over expression of the 6PGD gene on the release of cytokines IL-1β, TNF and IL-6. The Pgd gene was retrovirally overexpressed in BMM. Nigericin-triggered IL-1β release from LPS-primed cells (A), as well as LPS-induced TNF (B) and IL-6 (C), in culture supernatants were assessed by ELISA. Data were compiled from five independent experiments and are presented as mean±S.E.M. Statistical significance was determined using two-way ANOVA followed by Sidak's multiple comparison test (ns—not significant; * p<0.05; ** p<0.01).
Retroviral overexpression of target genes in primary macrophages was performed as previously described (Das Gupta et al., 2020, Cell Rep. 30:2712-2728.e2718). Briefly, 2×10^6 PlatE cells were transfected with 40 μg of the respective retroviral expression vectors using Lipofectamine 2000 (Thermo Fisher Scientific). At 24 h post-transfection, media were replaced and cells were incubated at 32° C. for 48 h for optimal virus production. Viral supernatants were filtered through a […] Millex-HV PVDF syringe filter (Merck) and supplemented with 1M HEPES, 10 μg/mL polybrene and CSF-1. Bone marrow progenitors treated with CSF-1 for 2 days were spin-infected (1000 g, 2 h, 35° C.) with viral supernatants in 6-well non-tissue culture plates. The cells were immediately supplemented with complete RPMI media, then incubated at 37° C. for 48 h. At 48 h post-transduction, cells were supplemented with complete RPMI media. On day 6 of macrophage differentiation, adherent cells were collected and plated for subsequent experiments.
BMM (5×10^5 cells/mL) or HMDM (5×10^5 cells/mL) were treated as indicated in individual figure legends. Supernatants were collected and assessed for secreted TNF. To assess secreted IL-1β by ELISA, cells were further treated with Nigericin for 1 h (2 h for HMDMs). Supernatants were collected and analyzed for levels of IL-1β. For experiments comparing macrophages derived from mice of different genotypes, MTT assays were performed in parallel to control for any differences in plating densities.

Row | Molecule | UPEC growth under oxidative stress ([1]; 0.8 mM H2O2) | inducible TNF production (secreted TNF) ([2]; HMDM pre-treated with RL5P for 16 h, ELISA) | Nigericin-triggered IL-1β release from LPS-primed cells ([2]; HMDM pre-treated with RL5P for 16 h, LPS, ELISA) | Suppression of IL-1β production in cells responding to Escherichia coli ([2]; HMDM, E. coli instead of LPS, effect in HMDM reduced to a lesser extent than in BMM) | inducible IL-6 production ([2]; HMDM, RL5P 16 h, then LPS (10 ng/mL) or UPEC EC958 (MOI 100) 4 h, ELISA) | inducible TNF production (secreted TNF) ([3]; BMM pre-treated with RL5P for 16 h, ELISA) | Nigericin-triggered IL-1β release from LPS-primed cells ([3]; BMM pre-treated with RL5P for 16 h, LPS, ELISA) | Suppression of IL-1β production in cells responding to Escherichia coli ([3]; BMM, E. coli instead of LPS) | inducible IL-6 production ([3]; BMM, RL5P 16 h, then LPS (10 ng/mL) or UPEC EC958 (MOI 100) 4 h, ELISA) | UPEC growth under oxidative stress ([1]; 1 mM H2O2) | UPEC growth in the absence of oxidative stress ([1]; no H2O2) | LPS-induced IL-6 [4] | LPS-induced TNF [4] | inducible IL-1β response ([4]; Nigericin-triggered release from LPS-primed cells)
1 | O=C(O)[C@H](O)[C@@H](O)[C@H](O)[C@H](O)COP(=O)(O)O [6PG, 6-phosphogluconate, reference compound] | did not affect UPEC growth | – | – | – | – | – | – | – | – | – | – | – | – | –
2 | O=C(CO)[C@H](O)[C@H](O)COP(=O)([O-])[O][Na+] [RL5P, Disodium [(2R,3R)-2,3,5-trihydroxy-4-oxopentyl]phosphate] | significantly impaired E. coli growth in a dose-dependent manner | dramatically reduced secreted TNF levels | suppressed LPS-inducible IL-1β production | much less pronounced | did not affect inducible IL-6 production | modest | suppressed LPS-inducible IL-1β production | much less pronounced | did not affect inducible IL-6 production | also apparent | did not affect UPEC growth | – | – | –
3 | B1 | – | – | – | – | – | – | – | – | – | – | – | unaffected | significantly reduced LPS-induced TNF | attenuated the inducible IL-1β response
